EPA's ToxRefDB 2

Experiments:
rat [1] = conditions: Sub-acute repeat dose toxicity; sprague dawley; Oral; Gavage/Intubation; dose end: 8 day; group: systemic; systemic / clinical chemistry / potassium / potassium + systemic / in life observation / body weight / body weight + systemic / clinical …
rat [2] = conditions: Sub-acute repeat dose toxicity, sprague dawley, Oral, Gavage/Intubation, dose end: 14 day, group: systemic
mouse [3] = conditions: Sub-acute repeat dose toxicity; Oral; Gavage/Intubation; dose end: 14 day; group: systemic; systemic / clinical chemistry / [other] / [other] + systemic / clinical chemistry / cytochrome p450, nos / cytochrome p450, nos + systemic…
rat [4] = conditions: Sub-acute repeat dose toxicity, sprague dawley, Oral, Gavage/Intubation, dose end: 34 day, group: systemic
rat [5] = conditions: Sub-acute repeat dose toxicity; sprague dawley; Oral; Gavage/Intubation; dose end: 14 day; group: systemic; systemic / clinical chemistry / [other] / [other] + systemic / clinical chemistry / 5' nucleotidase / 5' nucleotidase + systemic / clinical …
primate [6] = conditions: Sub-acute repeat dose toxicity, Oral, Gavage/Intubation, dose end: 34 day, group: systemic
mouse [7] = conditions: Sub-acute repeat dose toxicity, Oral, Gavage/Intubation, dose end: 14 day, group: systemic
mouse [8] = conditions: Sub-acute repeat dose toxicity; Oral; Gavage/Intubation; dose end: 14 day; group: systemic; systemic / clinical chemistry / [other] / [other] + systemic / clinical chemistry / cytochrome p450, nos / cytochrome p450, nos + systemic…; remark: listed apart in the source
primate [9] = conditions: Sub-acute repeat dose toxicity; Oral; Gavage/Intubation; dose end: 8 day; group: systemic; systemic / in life observation / clinical signs / emesis
primate [10] = conditions: Sub-acute repeat dose toxicity; Oral; Gavage/Intubation; dose end: 4 day; group: systemic; systemic / clinical chemistry / chloride / chlorine + systemic / clinical chemistry / cholesterol / cholesterol + systemic / clinical …
mouse [11] = conditions: Combined chronic toxicity/carcinogenicity; b6c3f1; Oral; Gavage/Intubation; dose end: 52 week; group: systemic; systemic / organ weight / liver / absolute + systemic / organ weight / liver / relative to body weight + systemic / pathology microscopic / …
rat [12] = conditions: Subchronic oral toxicity in rodents, sprague dawley, Water, dose end: 90 day, group: systemic
rat [13] = conditions: Subchronic inhalation toxicity, sprague dawley, Whole-Body, dose end: 13 week, group: systemic, systemic / hematology / erythrocyte (rbc) count differential / erythrocyte (rbc) + systemic / hematology / hemoglobin (hgb) / hemoglobin (…
mouse [14] = conditions: Combined chronic toxicity/carcinogenicity, b6c3f1, Inhalation, Whole-Body, dose end: 103 week, group: systemic
mouse [15] = conditions: Subchronic oral toxicity in rodents, b6c3f1, Gavage/Intubation, dose end: 13 week, group: systemic
rabbit = conditions: Prenatal developmental toxicity study, new zealand white, Oral, Gavage/Intubation, dose end: 18 GD
rat [16] = conditions: Combined chronic toxicity/carcinogenicity; fischer; Inhalation; Whole-Body; dose end: 103 week; group: systemic; systemic / pathology microscopic / larynx / metaplasia + systemic / pathology microscopic / nose / pigmentation + systemic / pathology …
rat [17] = conditions: Subchronic oral toxicity in rodents, fischer, Gavage/Intubation, dose end: 13 week, group: systemic
[18] = systemic / clinical chemistry / cholesterol / cholesterol + systemic / clinical chemistry / globulins / globulins + systemic / clinical …
[19] = systemic / clinical chemistry / hepatic mixed function oxidase (mfo) assay / hepatic mixed function oxidase (mfo) assay
[20] = systemic / hematology / erythrocyte (rbc) count differential / erythrocyte (rbc) + systemic / in life observation / mortality / mortality + …
[21] = systemic / organ weight / liver / absolute + systemic / clinical chemistry / hepatic mixed function oxidase (mfo) assay / hepatic mixed …
[22] = systemic / organ weight / liver / absolute + systemic / in life observation / clinical signs / arrhythmia + systemic / in life observation…
[23] = systemic / clinical chemistry / [other] / [other] + systemic / clinical chemistry / cytochrome p450, nos / cytochrome p450, nos + systemic…
[24] = systemic / organ weight / liver / relative to body weight
[25] = systemic / clinical chemistry / alanine aminotransferase (alt/sgpt) / alanine aminotransferase (alt/sgpt) + systemic / clinical chemistry / …
[26] = systemic / clinical chemistry / protein / protein
[27] = systemic / pathology microscopic / nose / pigmentation + systemic / pathology microscopic / trachea / pigmentation
[28] = systemic / in life observation / body weight / body weight gain + systemic / in life observation / clinical signs / fur (altered appearance…
[29] = systemic / organ weight / kidney / relative to brain weight + systemic / organ weight / liver / relative to brain weight
[30] = group: developmental, developmental / developmental malformation / bone / malformation, total
[31] = group: maternal, systemic / in life observation / body weight / body weight gain + systemic / in life observation / clinical signs / defecation (diarrhea) + …

Structure (SMILES): NC(=O)N(O)Cc1ccc2c(c1)CCCN2CCCc1ccccc1
- LEL (rat [1]): 400 mg/kg/day
- LOAEL (rat [1]): > 400 mg/kg/day
- NEL (rat [1]): < 400 mg/kg/day
- NOAEL (rat [1]): ≥ 400 mg/kg/day
- LOAEL (rat [2]; [18]): > 100 mg/kg/day
- NEL (rat [2]; [18]): 10 mg/kg/day
- NOAEL (rat [2]; [18]): ≥ 100 mg/kg/day
- LEL (rat [2]; systemic / clinical chemistry / triglycerides / triglycerides + systemic / organ weight / liver / relative to body weight + systemic / …): 32 mg/kg/day
- LEL (mouse [3]): 200 mg/kg/day
- LOAEL (mouse [3]): > 200 mg/kg/day
- NEL (mouse [3]): < 200 mg/kg/day
- NOAEL (mouse [3]): ≥ 200 mg/kg/day
- LEL (rat [4]; [19]): 10 mg/kg/day
- NEL (rat [4]; [19]): < 10 mg/kg/day
- LOAEL (rat [4]; [20]): > 200 mg/kg/day
- NOAEL (rat [4]; [20]): ≥ 200 mg/kg/day
- LEL (rat [5]): 200 mg/kg/day
- LOAEL (rat [5]): > 200 mg/kg/day
- NEL (rat [5]): < 200 mg/kg/day
- NOAEL (rat [5]): ≥ 200 mg/kg/day
- LEL (primate [6]; [21]): 5 mg/kg/day
- NEL (primate [6]; [21]): < 5 mg/kg/day
- LOAEL (primate [6]; [22]): > 100 mg/kg/day
- NOAEL (primate [6]; [22]): ≥ 100 mg/kg/day
- LOAEL (mouse [7]; [23]): > 200 mg/kg/day
- NOAEL (mouse [7]; [23]): ≥ 200 mg/kg/day
- LEL (mouse [7]; [24]): 50 mg/kg/day
- NEL (mouse [7]; [24]): < 50 mg/kg/day
- LEL (mouse [8]): 200 mg/kg/day
- LOAEL (mouse [8]): > 200 mg/kg/day
- NEL (mouse [8]): < 200 mg/kg/day
- NOAEL (mouse [8]): ≥ 200 mg/kg/day
- LEL (primate [9]): 150 mg/kg/day
- LOAEL (primate [9]): > 150 mg/kg/day
- NEL (primate [9]): < 150 mg/kg/day
- NOAEL (primate [9]): ≥ 150 mg/kg/day
- LEL (primate [10]): 300 mg/kg/day
- LOAEL (primate [10]): > 300 mg/kg/day
- NEL (primate [10]): < 300 mg/kg/day
- NOAEL (primate [10]): ≥ 300 mg/kg/day

Structure (SMILES): O=C(O)C(Cl)Cl [Dichloroacetic acid]
- LEL (mouse [11]): 133 mg/kg/day
- LOAEL (mouse [11]): > 267 mg/kg/day
- NEL (mouse [11]): < 133 mg/kg/day
- NOAEL (mouse [11]): ≥ 267 mg/kg/day
- LOAEL (rat [12]; [25]): > 345 mg/kg/day
- NOAEL (rat [12]; [25]): ≥ 345 mg/kg/day
- LEL (rat [12]; [26]): 3.9 mg/kg/day
- NEL (rat [12]; [26]): < 3.9 mg/kg/day

Structure (SMILES): ClC1=C(Cl)C(Cl)(Cl)C(Cl)=C1Cl [Hexachlorocyclopentadiene]
- LEL (rat [13]): 0.01 ppm
- LOAEL (rat [13]): > 0.2 ppm
- NEL (rat [13]): < 0.01 ppm
- NOAEL (rat [13]): ≥ 0.2 ppm
- LOAEL (mouse [14]; systemic / in life observation / body weight / body weight + systemic / pathology microscopic / nose / inflammation): 0.2 ppm
- NOAEL (mouse [14]; systemic / in life observation / body weight / body weight + systemic / pathology microscopic / nose / inflammation + systemic / pathology …): 0.05 ppm
- LEL (mouse [14]; [27]): 0.01 ppm
- NEL (mouse [14]; [27]): < 0.01 ppm
- LOAEL (mouse [15]; [28]): > 300 mg/kg/day
- NOAEL (mouse [15]; [28]): ≥ 300 mg/kg/day
- LEL (mouse [15]; [29]): 19 mg/kg/day
- NEL (mouse [15]; [29]): < 19 mg/kg/day
- LEL (rabbit; [30]): 75 mg/kg/day
- LOAEL (rabbit; [30]): > 75 mg/kg/day
- NEL (rabbit; [30]): 25 mg/kg/day
- NOAEL (rabbit; [30]): ≥ 75 mg/kg/day
- LEL (rabbit; [31]): 75 mg/kg/day
- LOAEL (rabbit; [31]): 75 mg/kg/day
- NEL (rabbit; [31]): 25 mg/kg/day
- NOAEL (rabbit; [31]): 25 mg/kg/day
- LEL (rat [16]): 0.01 ppm
- LOAEL (rat [16]): > 0.2 ppm
- NEL (rat [16]): < 0.01 ppm
- NOAEL (rat [16]): ≥ 0.2 ppm
- LOAEL (rat [17]; [28]): > 150 mg/kg/day
- NEL (rat [17]; [28]): 10 mg/kg/day
- NOAEL (rat [17]; [28]): ≥ 150 mg/kg/day
- LEL (rat [17]; systemic / pathology microscopic / stomach / hyperplasia + systemic / pathology microscopic / stomach / inflammation): 19 mg/kg/day
